Measured values published in patent US11285218B2, “Degradation of bromodomain-containing protein 9 (BRD9) by conjugation of BRD9 inhibitors with E3 ligase ligand and methods of use” (Dana-Farber Cancer Institute, Inc., priority 2016, dated 2022).
Entries after “also recorded” stand apart in the source; their conditions may differ.

What was measured:
[1] = tested on: 32 members of the human bromodomain family; test: BromoScan single-point screen, panel profile; type: binding; settings: single-point 1 μM, 32 bromodomains; in words
From the text: (§1) The BromoScan is an assay that measures the engagement of compounds with bromodomain proteins by utilizing DNA-tagged bromodomain and immobilized ligand attached to solid support. In the control test, DNA-tagged bromodomain binds to the ligand and the bromodomain is captured on the solid support. Compounds that compete for the bromodomain binding location on the ligand will prevent the bromodomain from binding, resulting in less protein captured on the solid support.

ATAD2A = target: T1, ATAD2A (Homo sapiens, UniProt Q6PL18); test: BromoScan single-point screen; type: binding; settings: percent of protein captured on solid support vs control
T1 construct: utilizing DNA-tagged bromodomain and immobilized ligand attached to solid support
T1 sequence (Q6PL18 980-1092 limits assumed): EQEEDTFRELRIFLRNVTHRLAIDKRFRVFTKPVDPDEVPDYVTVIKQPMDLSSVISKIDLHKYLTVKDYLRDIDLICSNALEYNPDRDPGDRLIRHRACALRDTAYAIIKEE
From the text: as §1

ATAD2B = target: T2, ATAD2B (Homo sapiens, UniProt Q9ULI0); test: BromoScan single-point screen; type: binding; settings: percent of protein captured on solid support vs control
T2 construct: utilizing DNA-tagged bromodomain and immobilized ligand attached to solid support
T2 sequence (Q9ULI0 951-1066 limits assumed): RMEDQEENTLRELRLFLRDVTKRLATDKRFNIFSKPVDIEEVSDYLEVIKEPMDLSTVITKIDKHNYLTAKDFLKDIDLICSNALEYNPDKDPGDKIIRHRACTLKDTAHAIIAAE
From the text: as §1

BAZ^2A = target: T3, BAZ^2A (Homo sapiens, UniProt Q9UIF9); test: BromoScan single-point screen; type: binding; settings: percent of protein captured on solid support vs control
T3 construct: utilizing DNA-tagged bromodomain and immobilized ligand attached to solid support
T3 sequence (Q9UIF9 1793-1897 limits assumed): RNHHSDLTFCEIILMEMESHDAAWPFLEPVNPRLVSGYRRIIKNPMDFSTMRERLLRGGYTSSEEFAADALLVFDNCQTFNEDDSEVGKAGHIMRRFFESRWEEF
From the text: as §1

BAZ^2B = target: T4, BAZ^2B (Homo sapiens, UniProt Q9UIF8); test: BromoScan single-point screen; type: binding; settings: percent of protein captured on solid support vs control
T4 construct: utilizing DNA-tagged bromodomain and immobilized ligand attached to solid support
T4 sequence (Q9UIF8 2060-2164 limits assumed): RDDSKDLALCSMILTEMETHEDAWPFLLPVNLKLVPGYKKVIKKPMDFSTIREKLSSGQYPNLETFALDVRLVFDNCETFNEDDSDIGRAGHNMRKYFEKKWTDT
From the text: as §1

BRD1 = target: T5, BRD1 (Homo sapiens, UniProt O95696); test: BromoScan single-point screen; type: binding; settings: percent of protein captured on solid support vs control
T5 construct: utilizing DNA-tagged bromodomain and immobilized ligand attached to solid support
T5 sequence (O95696 562-666 limits assumed): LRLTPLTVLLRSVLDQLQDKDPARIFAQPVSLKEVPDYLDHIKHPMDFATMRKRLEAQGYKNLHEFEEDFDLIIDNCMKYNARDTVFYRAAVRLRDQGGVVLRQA
From the text: as §1

BRD2(1) = target: T6, BRD2(1) (Homo sapiens, UniProt P25440); test: BromoScan single-point screen; type: binding; settings: percent of protein captured on solid support vs control
T6 construct: utilizing DNA-tagged bromodomain and immobilized ligand attached to solid support
T6 sequence (P25440 74-180 limits assumed): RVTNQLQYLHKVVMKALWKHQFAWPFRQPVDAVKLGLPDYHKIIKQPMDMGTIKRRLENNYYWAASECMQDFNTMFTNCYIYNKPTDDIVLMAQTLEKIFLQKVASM
From the text: as §1

BRD2(2) = target: T7, BRD2(2) (Homo sapiens, UniProt P25440); test: BromoScan single-point screen; type: binding; settings: percent of protein captured on solid support vs control
T7 construct: utilizing DNA-tagged bromodomain and immobilized ligand attached to solid support
T7 sequence (P25440 344-453 limits assumed): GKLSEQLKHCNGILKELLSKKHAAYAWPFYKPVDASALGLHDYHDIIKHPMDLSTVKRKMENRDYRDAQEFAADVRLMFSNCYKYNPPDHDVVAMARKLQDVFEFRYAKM
From the text: as §1

BRD3(1) = target: T8, BRD3(1) (Homo sapiens, UniProt Q15059); test: BromoScan single-point screen; type: binding; settings: percent of protein captured on solid support vs control
T8 construct: utilizing DNA-tagged bromodomain and immobilized ligand attached to solid support
T8 sequence (Q15059 34-140 limits assumed): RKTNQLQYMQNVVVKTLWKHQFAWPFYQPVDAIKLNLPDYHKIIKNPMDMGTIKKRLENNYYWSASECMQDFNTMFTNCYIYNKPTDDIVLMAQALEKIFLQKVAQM
From the text: as §1

BRD3(2) = target: T9, BRD3(2) (Homo sapiens, UniProt Q15059); test: BromoScan single-point screen; type: binding; settings: percent of protein captured on solid support vs control
T9 construct: utilizing DNA-tagged bromodomain and immobilized ligand attached to solid support
T9 sequence (Q15059 306-415 limits assumed): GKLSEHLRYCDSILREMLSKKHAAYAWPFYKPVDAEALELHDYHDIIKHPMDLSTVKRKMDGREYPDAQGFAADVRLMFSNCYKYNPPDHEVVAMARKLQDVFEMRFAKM
From the text: as §1

BRD7 [2] = target: T10, BRD7 (Homo sapiens, UniProt Q9NPI1); test: BromoScan single-point screen; type: binding; settings: percent of protein captured on solid support vs control
T10 construct: utilizing DNA-tagged bromodomain and immobilized ligand attached to solid support
From the text: as §1
T10 sequence (Q9NPI1 131-235 limits assumed): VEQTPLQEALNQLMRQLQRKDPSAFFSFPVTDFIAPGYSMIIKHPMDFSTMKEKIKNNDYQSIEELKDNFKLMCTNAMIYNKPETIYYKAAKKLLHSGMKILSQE

BRDT(1) = target: T11, BRDT(1) (Homo sapiens, UniProt Q58F21); test: BromoScan single-point screen; type: binding; settings: percent of protein captured on solid support vs control
T11 construct: utilizing DNA-tagged bromodomain and immobilized ligand attached to solid support
From the text: as §1

BRDT(2) = target: T12, BRDT(2) (Homo sapiens, UniProt Q58F21); test: BromoScan single-point screen; type: binding; settings: percent of protein captured on solid support vs control
T12 construct: utilizing DNA-tagged bromodomain and immobilized ligand attached to solid support
From the text: as §1

BRPF1 = target: T13, BRPF1 (Homo sapiens, UniProt P55201); test: BromoScan single-point screen; type: binding; settings: percent of protein captured on solid support vs control
T13 construct: utilizing DNA-tagged bromodomain and immobilized ligand attached to solid support
T13 sequence (P55201 628-732 limits assumed): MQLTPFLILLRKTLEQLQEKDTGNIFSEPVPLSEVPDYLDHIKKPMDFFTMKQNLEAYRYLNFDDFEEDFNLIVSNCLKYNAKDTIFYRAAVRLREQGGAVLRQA
From the text: as §1

BRPF3 = target: T14, BRPF3 (Homo sapiens, UniProt Q9ULD4); test: BromoScan single-point screen; type: binding; settings: percent of protein captured on solid support vs control
T14 construct: utilizing DNA-tagged bromodomain and immobilized ligand attached to solid support
T14 sequence (Q9ULD4 589-693 limits assumed): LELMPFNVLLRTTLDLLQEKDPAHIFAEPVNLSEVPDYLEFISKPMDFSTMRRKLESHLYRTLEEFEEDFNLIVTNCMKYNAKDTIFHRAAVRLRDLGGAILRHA
From the text: as §1

CECR2 = target: T15, CECR2 (Homo sapiens, UniProt Q9BXF3); test: BromoScan single-point screen; type: binding; settings: percent of protein captured on solid support vs control
T15 construct: utilizing DNA-tagged bromodomain and immobilized ligand attached to solid support
T15 sequence (Q9BXF3 434-538 limits assumed): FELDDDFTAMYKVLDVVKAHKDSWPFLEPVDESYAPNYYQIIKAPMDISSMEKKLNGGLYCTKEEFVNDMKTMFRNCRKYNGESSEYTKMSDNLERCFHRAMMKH
From the text: as §1

CREBBP = target: T16, CREBBP (Homo sapiens, UniProt Q92793); test: BromoScan single-point screen; type: binding; settings: percent of protein captured on solid support vs control
T16 construct: utilizing DNA-tagged bromodomain and immobilized ligand attached to solid support
T16 sequence (Q92793 1085-1192 limits assumed): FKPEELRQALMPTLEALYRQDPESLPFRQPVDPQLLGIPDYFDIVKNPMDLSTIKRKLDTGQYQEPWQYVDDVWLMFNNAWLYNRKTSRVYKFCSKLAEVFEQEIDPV
From the text: as §1

EP300 = target: T17, EP300 (Homo sapiens, UniProt Q09472); test: BromoScan single-point screen; type: binding; settings: percent of protein captured on solid support vs control
T17 construct: utilizing DNA-tagged bromodomain and immobilized ligand attached to solid support
T17 sequence (Q09472 1049-1156 limits assumed): as the sequence (Q92793 1085-1192 limits assumed) above, with N47S, V73I, F93Y, A98S counted along it
From the text: as §1

FALZ = target: T18, FALZ (Homo sapiens, UniProt Q12830); test: BromoScan single-point screen; type: binding; settings: percent of protein captured on solid support vs control
T18 construct: utilizing DNA-tagged bromodomain and immobilized ligand attached to solid support
From the text: as §1

GCN5L2 = target: T19, GCN5L2 (Homo sapiens, UniProt Q92830); test: BromoScan single-point screen; type: binding; settings: percent of protein captured on solid support vs control
T19 construct: utilizing DNA-tagged bromodomain and immobilized ligand attached to solid support
T19 sequence (Q92830 728-832 limits assumed): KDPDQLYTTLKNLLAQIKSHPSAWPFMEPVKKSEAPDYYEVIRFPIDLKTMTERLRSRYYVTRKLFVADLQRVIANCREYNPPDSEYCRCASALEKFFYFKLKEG
From the text: as §1

PBRM1(2) = target: T20, PBRM1(2) (Homo sapiens, UniProt Q86U86); test: BromoScan single-point screen; type: binding; settings: percent of protein captured on solid support vs control
T20 construct: utilizing DNA-tagged bromodomain and immobilized ligand attached to solid support
T20 sequence (Q86U86 177-287 limits assumed): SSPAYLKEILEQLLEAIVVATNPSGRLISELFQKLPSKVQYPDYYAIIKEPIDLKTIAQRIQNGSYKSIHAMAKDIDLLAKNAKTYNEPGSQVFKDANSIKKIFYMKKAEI
From the text: as §1

PBRM1(5) = target: T21, PBRM1(5) (Homo sapiens, UniProt Q86U86); test: BromoScan single-point screen; type: binding; settings: percent of protein captured on solid support vs control
T21 construct: utilizing DNA-tagged bromodomain and immobilized ligand attached to solid support
T21 sequence (Q86U86 653-763 limits assumed): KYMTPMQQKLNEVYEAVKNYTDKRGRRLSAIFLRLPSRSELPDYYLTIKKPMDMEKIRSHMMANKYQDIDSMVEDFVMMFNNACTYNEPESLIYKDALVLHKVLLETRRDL
From the text: as §1

PCAF = target: T22, PCAF (Homo sapiens, UniProt Q92831); test: BromoScan single-point screen; type: binding; settings: percent of protein captured on solid support vs control
T22 construct: utilizing DNA-tagged bromodomain and immobilized ligand attached to solid support
T22 sequence (Q92831 723-827 limits assumed): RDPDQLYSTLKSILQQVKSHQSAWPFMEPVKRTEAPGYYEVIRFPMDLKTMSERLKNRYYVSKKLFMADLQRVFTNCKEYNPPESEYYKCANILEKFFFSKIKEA
From the text: as §1

SMARCA2 = target: T23, SMARCA2 (Homo sapiens, UniProt P51531); test: BromoScan single-point screen; type: binding; settings: percent of protein captured on solid support vs control
T23 construct: utilizing DNA-tagged bromodomain and immobilized ligand attached to solid support
T23 sequence (P51531 1378-1506 limits assumed): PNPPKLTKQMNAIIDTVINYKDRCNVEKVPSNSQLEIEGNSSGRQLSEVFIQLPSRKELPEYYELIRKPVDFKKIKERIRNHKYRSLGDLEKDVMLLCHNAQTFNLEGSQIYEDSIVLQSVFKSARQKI
From the text: as §1

SMARCA4 = target: T24, SMARCA4 (Homo sapiens, UniProt P51532); test: BromoScan single-point screen; type: binding; settings: percent of protein captured on solid support vs control
T24 construct: utilizing DNA-tagged bromodomain and immobilized ligand attached to solid support
T24 sequence (P51532 1453-1564 limits assumed): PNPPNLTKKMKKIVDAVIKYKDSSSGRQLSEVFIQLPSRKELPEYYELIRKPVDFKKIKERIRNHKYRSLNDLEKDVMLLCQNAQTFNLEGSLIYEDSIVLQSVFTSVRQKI
From the text: as §1

TAF1(2) = target: T25, TAF1(2) (Homo sapiens, UniProt P21675); test: BromoScan single-point screen; type: binding; settings: percent of protein captured on solid support vs control
T25 construct: utilizing DNA-tagged bromodomain and immobilized ligand attached to solid support
T25 sequence (P21675 1519-1628 limits assumed): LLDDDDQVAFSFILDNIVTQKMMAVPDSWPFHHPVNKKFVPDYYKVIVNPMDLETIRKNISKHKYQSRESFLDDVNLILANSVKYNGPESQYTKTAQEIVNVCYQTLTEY
From the text: as §1

TAF1L(2) = target: T26, TAF1L(2) (Homo sapiens, UniProt Q8IZX4); test: BromoScan single-point screen; type: binding; settings: percent of protein captured on solid support vs control
T26 construct: utilizing DNA-tagged bromodomain and immobilized ligand attached to solid support
T26 sequence (Q8IZX4 1517-1626 limits assumed): as the sequence (P21675 1519-1628 limits assumed) above, with V46M, M51V, V102I, L107I counted along it
From the text: as §1

TRIM24 (PHD, Bromo.) = target: T27, TRIM24 (PHD, Bromo.) (Homo sapiens, UniProt O15164); test: BromoScan single-point screen; type: binding; settings: percent of protein captured on solid support vs control
T27 construct: utilizing DNA-tagged bromodomain and immobilized ligand attached to solid support
T27 sequence (O15164 824-1006 limits assumed): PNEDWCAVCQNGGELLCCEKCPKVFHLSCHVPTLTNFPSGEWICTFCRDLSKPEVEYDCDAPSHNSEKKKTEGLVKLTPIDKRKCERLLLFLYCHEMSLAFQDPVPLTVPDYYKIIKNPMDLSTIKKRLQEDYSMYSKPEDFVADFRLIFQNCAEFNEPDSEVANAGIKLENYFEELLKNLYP
From the text: as §1

WDR9(2) = target: T28, WDR9(2) (Homo sapiens, UniProt Q9NSI6); test: BromoScan single-point screen; type: binding; settings: percent of protein captured on solid support vs control
T28 construct: utilizing DNA-tagged bromodomain and immobilized ligand attached to solid support
T28 sequence (Q9NSI6 1313-1418 limits assumed): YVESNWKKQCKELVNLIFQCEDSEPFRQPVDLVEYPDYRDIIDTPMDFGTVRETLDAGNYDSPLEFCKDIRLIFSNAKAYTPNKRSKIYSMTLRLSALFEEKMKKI
From the text: as §1

TRIM33 (PHD, Bromo.) = test: BromoScan single-point screen; type: binding, human; settings: percent of protein captured on solid support vs control
From the text: as §1

BRD7 [3] = target: BRD7 (Homo sapiens, UniProt Q9NPI1); test: BRD7 immunoblot in MOLM-13; settings: MOLM-13, 4 hour treatment
Target sequence in this assay (Q9NPI1 whole entry): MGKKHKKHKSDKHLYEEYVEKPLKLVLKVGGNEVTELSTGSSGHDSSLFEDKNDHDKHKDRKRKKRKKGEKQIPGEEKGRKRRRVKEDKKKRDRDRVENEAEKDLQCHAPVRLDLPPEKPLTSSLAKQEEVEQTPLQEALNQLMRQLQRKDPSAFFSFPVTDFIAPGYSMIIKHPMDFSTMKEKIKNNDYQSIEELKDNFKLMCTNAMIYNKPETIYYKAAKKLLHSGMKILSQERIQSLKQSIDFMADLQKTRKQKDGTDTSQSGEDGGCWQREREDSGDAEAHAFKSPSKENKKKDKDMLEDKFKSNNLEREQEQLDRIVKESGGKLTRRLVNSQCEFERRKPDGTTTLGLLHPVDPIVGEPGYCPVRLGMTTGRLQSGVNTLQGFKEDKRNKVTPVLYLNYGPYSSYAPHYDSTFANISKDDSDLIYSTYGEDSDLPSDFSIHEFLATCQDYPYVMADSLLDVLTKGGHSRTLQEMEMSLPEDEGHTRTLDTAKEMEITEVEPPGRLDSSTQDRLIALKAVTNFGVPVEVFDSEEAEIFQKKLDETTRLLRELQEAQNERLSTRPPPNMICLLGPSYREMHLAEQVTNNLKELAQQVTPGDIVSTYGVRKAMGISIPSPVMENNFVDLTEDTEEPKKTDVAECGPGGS
Protocol: In additional experiments, cells were washed with PBS, before being lysed in RIPA buffer supplemented with 1×HALT™ protease inhibitor cocktail (Thermo Scientific) for 10 min on ice, followed by low-amplitude sonication for 10 seconds at 4° C. […] In soluble material was removed by centrifugation at 20,000×g for 20 min before protein content was quantified by BCA assay (Pierce). […] Blots were imaged using fluorescence-labeled secondary antibodies (LI-COR) on the OdysseyCLxImager (LI-COR).

[4] = tested on: MM.1S multiple myeloma line; test: ATPlite viability assay, MM.1S; settings: 72 hour treatment, in words
Protocol: 500 cells/well were plated at a volume of 40 μL/well in white tissue culture treated 384 well assay plates (Thermo Scientific) before DMSO compound stock was added from pre-diluted plates by pin transfer using a Janus Workstation (PerkinElmer, USA). […] Assay plates were allowed to equilibrate to RT for 30 min before reconstituted ATPlite 1 Step reagent (Perkin Elmer) was dispensed at 1:1 volume/well by EL406 automated liquid handler (Biotek, USA).

COc1cc(-c2cn(C)c(=O)c3cnccc23)cc(OC)c1CN(C)CC(=O)NCCOCCOCCNc1cccc2c1C(=O)N(C1CCC(=O)NC1=O)C2=O (centres unmarked) [Compound I-25]
bromodomain interaction profile [1]: exclusive interaction with BRD9; also recorded: exclusively interacts with BRD9
% Ctrl @ 1 μM (ATAD2A): 94 % Ctrl
% Ctrl @ 1 μM (ATAD2B): 81 % Ctrl
% Ctrl @ 1 μM (BAZ^2A): 62 % Ctrl
% Ctrl @ 1 μM (BAZ^2B): 75 % Ctrl
% Ctrl @ 1 μM (BRD1): 75 % Ctrl
% Ctrl @ 1 μM (BRD2(1)): 81 % Ctrl
% Ctrl @ 1 μM (BRD2(2)): 93 % Ctrl
% Ctrl @ 1 μM (BRD3(1)): 87 % Ctrl
% Ctrl @ 1 μM (BRD3(2)): 85 % Ctrl
% Ctrl @ 1 μM (BRD7 [2]): 25 % Ctrl
% Ctrl @ 1 μM (BRDT(1)): 90 % Ctrl
% Ctrl @ 1 μM (BRDT(2)): 83 % Ctrl
% Ctrl @ 1 μM (BRPF1): 75 % Ctrl
% Ctrl @ 1 μM (BRPF3): 86 % Ctrl
% Ctrl @ 1 μM (CECR2): 14 % Ctrl
% Ctrl @ 1 μM (CREBBP): 88 % Ctrl
% Ctrl @ 1 μM (EP300): 88 % Ctrl
% Ctrl @ 1 μM (FALZ): 79 % Ctrl
% Ctrl @ 1 μM (GCN5L2): 77 % Ctrl
% Ctrl @ 1 μM (PBRM1(2)): 79 % Ctrl
% Ctrl @ 1 μM (PBRM1(5)): 89 % Ctrl
% Ctrl @ 1 μM (PCAF): 67 % Ctrl
% Ctrl @ 1 μM (SMARCA2): 70 % Ctrl
% Ctrl @ 1 μM (SMARCA4): 57 % Ctrl
% Ctrl @ 1 μM (TAF1(2)): 63 % Ctrl
% Ctrl @ 1 μM (TAF1L(2)): 80 % Ctrl
% Ctrl @ 1 μM (TRIM24 (PHD, Bromo.)): 98 % Ctrl
% Ctrl @ 1 μM (WDR9(2)): 86 % Ctrl
% Ctrl @ 1 μM (TRIM33 (PHD, Bromo.)): 100 % Ctrl
BRD7 degradation (immunoblot) (BRD7 [3]): not able to induce degradation of BRD7 at any of the concentrations
efficacy on viability [4]: comparable efficacy
